Experimental data published in patent publication US4108991A, “N-aminosulfenyl derivatives of aldicarb” (priority 1976, dated 1978).
Values joined by “and” are separate entries in the source; they are usually repeats but may differ in a detail not shown here. Identical values can stand only once.

Assays:
Pea aphid [1] = test: Initial contact activity, leaf dip, pea aphid; assay type: in vivo, Acyrthosiphon pisum [Harris]; conditions: for Percent Kill: initial, PA, 48 hours
Procedure: (§1) Initial Contact Activity: One half gram of test compound was dissolved in 40 ml of acetone and this solution was dispersed in 360 ml of water containing one drop of isooctylphenyl polyethoxyethanol. Aliquots of this solution, which corresponds to 1250 ppm of active ingredient, were diluted with an appropriate amount of water to provide solutions containing various concentrations of active ingredient. Test organisms and techniques were as follows: The activity against the Mexican bean beetle (Epilachna varivestis Muls.) and the southern armyworm (Spodoptera eridania [Cram.]) was evaluated by dipping the leaves of pinto bean plants into the test solution and infesting the leaves with the appropriate immature-form insects when the foiliage had dried; the activity against the pea aphid (Acyrthosiphon pisum [Harris]) was evaluated on broad bean plants whose leaves were dipped before infestation with adult aphids; the activity against two-sotted spider mites (Tetranychus urticae Koch) was evaluated on pinto bean plants whose leaves were dipped after infestation with adult mites; the activity against the milkweed bug (Oncopeltus fasciatus [Dallas]), and the plum curculio (Conotrachelus nenuphar [Herbst]) was evaluated by spraying the test solutions into glass dishes or jars containing the adult insects; the activity against the confused flour beetle (Tribolium confusum duVal) was evaluated by introducing the insects into glass dishes which had been previously sprayed with test solution and allowed to dry. All organisms in the test were maintained in a holding room at 80° F and 50% relative humidity for an exposure period of 48 hours. At the end of this time, the dead and living insects or mites were counted, and the percent kill was calculated.

Two-spotted spider mite [2] = test: Systemic activity, soil-watering, two-spotted spider mite; assay type: in vivo, Tetranychus urticae Koch; conditions: Tetranychus urticae, 48 h
Procedure: as §1
(§2) Systemic Activity: Systemic activity was measured using a soil-watering technique. Test organisms were Mexican bean beetle, southern armyworm, pea aphid, and mites on plants as described above in this Example. With appropriate precautions to avoid contact of the solution with the test plant surfaces, 25 ml of a test solution, prepared as above to contain the desired amount of active ingredient, were poured evenly over the surface of the soil in which the plant was growing. The treated plants were maintained under normal growing conditions for three days to permit translocation of the toxicant, after which the leaves were infested. Two days after infestation, counts of living and dead insects were made.

Confused flour beetle = test: Residual (7-day) contact activity, confused flour beetle; assay type: in vivo, Tribolium confusum duVal; conditions: Tribolium confusum, 168 h, read-out: Percent Kill
Procedure: as §1
(§3) Residual Contact Activity: The residual contact activity of the compounds was determined on the same organisms using the techniques described above, except that in each case the treated surface was allowed to dry and was exposed to normal light and air for seven days before introduction of the mites or insects.

Granary Weevil [3] = test: Initial contact activity, granary weevil; assay type: in vivo
Two-spotted spider mite [4] = test: Residual (7-day) contact activity, two-spotted spider mite; assay type: in vivo, Tetranychus urticae Koch
Procedure: as §1, §3

Milkweed bug = test: Residual (7-day) contact activity, milkweed bug; assay type: in vivo, Oncopeltus fasciatus [Dallas]; conditions: for Percent Kill: residual 7-day, MWB
Procedure: as §1, §3

Southern armyworm [5] = test: Initial contact activity, leaf dip, southern armyworm; assay type: in vivo, Spodoptera eridania [Cram.]; conditions: for Percent Kill: initial, AW, 48 hours
Procedure: as §1

Granary Weevil [6] = test: Residual (7-day) contact activity, granary weevil; assay type: in vivo; conditions: Sitophilus granarius, 168 h, read-out: Percent Kill
[7] = Toxicity to rats, acute oral median lethal dose (LD50), Method A; assay type: in vivo, young female albino rats, derived from Sprague-Dawley stock; conditions: in vivo, rat, corn oil, 14 days observation
Procedure: Method A: Young female albino rats, derived from Sprague-Dawley stock and weighing between 175 and 200 g, were used. An initial screening was conducted to determine the general level of toxicity of the test compounds and to establish the dosing range to be used with each compound. The test materials were suspended in corn oil and administered directly into the stomachs of the rats, using a hypodermic syringe equipped with a ball-tipped intubating needle. A range of dosing levels was employed utilizing two rats at each level. […] This method was used to determine the toxicity to rats of the compounds of Examples I, II, and III and aldicarb.

Pea aphid [8] = test: Systemic activity, soil-watering, pea aphid; assay type: in vivo, Acyrthosiphon pisum [Harris]
Procedure: as §1, §2

Southern armyworm [9] = test: Systemic activity, soil-watering, southern armyworm; assay type: in vivo, Spodoptera eridania [Cram.]; conditions: Spodoptera eridania, 48 h, read-out: Percent Kill
Procedure: as §1, §2

Plum curculio = test: Residual (7-day) contact activity, plum curculio; assay type: in vivo, Conotrachelus nenuphar [Herbst]
Procedure: as §1, §3

Mexican bean beetle = test: Systemic activity, soil-watering, Mexican bean beetle; assay type: in vivo, Epilachna varivestis Muls.; conditions: Epilachna varivestis, 48 h
Procedure: as §1, §2

Pea aphid [10] = test: Residual (7-day) contact activity, pea aphid; assay type: in vivo, Acyrthosiphon pisum [Harris]; conditions: Acyrthosiphon pisum, 168 h
Procedure: as §1, §3

[11] = Conotrachelus nenuphar, 168 h, read-out: Percent Kill

Compound CNC(=O)ON=CC(C)(C)SC [Aldicarb, 2-methyl-2-(methylthio)propanal O-(methylcarbamoyl)oxime] has a mortality at 10 ppm (Pea aphid [1]; Acyrthosiphon pisum, foliar, 48 h, read-out: Percent Kill, initial, PA, 10 PPM, 48 hours) of 33%, a mortality at 20 ppm (Pea aphid [1]; Acyrthosiphon pisum, foliar, 48 h, read-out: Percent Kill, initial, PA, 20 PPM, 48 hours) of 35% and a mortality at 156 ppm (Pea aphid [1]; Acyrthosiphon pisum, foliar, 48 h, read-out: Percent Kill, initial, PA, 156 PPM, 48 hours) of 100%. For the same compound, the mortality at 1250 ppm (Pea aphid [1]; Acyrthosiphon pisum, foliar, 48 h, read-out: Percent Kill, initial, PA, 1250 PPM, 48 hours) was 100%, the “Percent Kill” value (Pea aphid [1]; 39 PPM, 2880 min) was 60% and 85% and the “Percent Kill” value (Pea aphid [1]; 156 PPM) was 100%. The mortality at 2.5 ppm (Two-spotted spider mite [2]; read-out: Percent Kill, systemic, SM, 2.5 PPM) was 4.6%, the mortality at 10 ppm (Two-spotted spider mite [2]; read-out: Percent Kill, systemic, SM, 10 PPM) was 100% and the mortality at 39 ppm (Two-spotted spider mite [2]; read-out: Percent Kill, systemic, SM, 39 PPM) was 100%. It also gave a mortality at 312 ppm (Confused flour beetle) of 0%, a mortality at 1250 ppm (Confused flour beetle) of 0% and a mortality at 20 ppm (Granary Weevil [3]; Sitophilus granarius, 48 h, read-out: Percent Kill, initial, GW, 20 PPM, 48 hours) of 20%. It also gave a mortality at 39 ppm (Granary Weevil [3]; Sitophilus granarius, 48 h, read-out: Percent Kill, initial, GW, 39 PPM, 48 hours) of 40%, a mortality at 156 ppm (Granary Weevil [3]; Sitophilus granarius, 48 h, read-out: Percent Kill, initial, GW, 156 PPM, 48 hours) of 100% and a mortality at 312 ppm (Granary Weevil [3]; Sitophilus granarius, 48 h, read-out: Percent Kill, initial, GW, 312 PPM, 48 hours) of 100%. For the same compound, the mortality at 1250 ppm (Granary Weevil [3]; Sitophilus granarius, 48 h, read-out: Percent Kill, initial, GW, 1250 PPM, 48 hours) was 100%, the “Percent Kill” value (Granary Weevil [3]; initial, GW, 156 PPM, 48 hours, 2880 min) was 97.5% and the mortality at 39 ppm (Two-spotted spider mite [4]; Tetranychus urticae, 168 h, read-out: Percent Kill, residual 7-day, SM, 39 PPM) was 17%. For the same compound, the mortality at 156 ppm (Two-spotted spider mite [4]; Tetranychus urticae, 168 h, read-out: Percent Kill, residual 7-day, SM, 156 PPM) was 91.5%, the mortality at 312 ppm (Two-spotted spider mite [4]; Tetranychus urticae, 168 h, read-out: Percent Kill, residual 7-day, SM, 312 PPM) was 97% and the mortality at 1250 ppm (Two-spotted spider mite [4]; Tetranychus urticae, 168 h, read-out: Percent Kill, residual 7-day, SM, 1250 PPM) was 98.6%. The “Percent Kill” value (Two-spotted spider mite [4]; residual 7-day, SM, 156 PPM) was 90%, the mortality at 156 ppm (Milkweed bug; Oncopeltus fasciatus, 168 h, read-out: Percent Kill, residual 7-day, MWB, 156 PPM) was 15% and the mortality at 312 ppm (Milkweed bug; Oncopeltus fasciatus, 168 h, read-out: Percent Kill, residual 7-day, MWB, 312 PPM) was 80%. The mortality at 625 ppm (Milkweed bug; Oncopeltus fasciatus, 168 h, read-out: Percent Kill, residual 7-day, MWB, 625 PPM) was 100%, the mortality at 1250 ppm (Milkweed bug; Oncopeltus fasciatus, 168 h, read-out: Percent Kill, residual 7-day, MWB, 1250 PPM) was 100% and the “Percent Kill” value (Milkweed bug; 312 PPM) was 70%. The “Percent Kill” value (Milkweed bug; 1250 PPM) was 100%, the mortality at 156 ppm (Southern armyworm [5]; Spodoptera eridania, foliar, 48 h, read-out: Percent Kill, initial, AW, 156 PPM, 48 hours) was 23% and the mortality at 312 ppm (Southern armyworm [5]; Spodoptera eridania, foliar, 48 h, read-out: Percent Kill, initial, AW, 312 PPM, 48 hours) was 0%. For the same compound, the mortality at 625 ppm (Southern armyworm [5]; Spodoptera eridania, foliar, 48 h, read-out: Percent Kill, initial, AW, 625 PPM, 48 hours) was 12%, the “Percent Kill” value (Southern armyworm [5]; 312 PPM) was 0% and the “Percent Kill” value (Southern armyworm [5]; 625 PPM, 2880 min) was 15%. For the same compound, the mortality at 312 ppm (Granary Weevil [6]) was 3.3%, the mortality at 1250 ppm (Granary Weevil [6]) was 0% and the LD50 at 336 h [7] was 0.5 mg/kg. The mortality at 5 ppm (Pea aphid [8]; Acyrthosiphon pisum, 48 h, read-out: Percent Kill, systemic, PA, 5 PPM) was 100%, the mortality at 10 ppm (Pea aphid [8]; Acyrthosiphon pisum, 48 h, read-out: Percent Kill, systemic, PA, 10 PPM) was 90% and the mortality at 39 ppm (Pea aphid [8]; Acyrthosiphon pisum, 48 h, read-out: Percent Kill, systemic, PA, 39 PPM) was 100%. The mortality at 321 ppm (Pea aphid [8]; Acyrthosiphon pisum, 48 h, read-out: Percent Kill, systemic, PA, 321 PPM) was 100%, the “Percent Kill” value (Pea aphid [8]; systemic, PA, 10 PPM, 2880 min) was 100% and the mortality at 39 ppm (Southern armyworm [9]) was 50%. It also gave a mortality at 312 ppm (Southern armyworm [9]) of 100%, a mortality at 625 ppm (Southern armyworm [9]) of 100% and a mortality at 156 ppm (Plum curculio; [11]) of 4.8%. The mortality at 312 ppm (Plum curculio; [11]) was 32%, the mortality at 625 ppm (Plum curculio; [11]) was 0% and the mortality at 1250 ppm (Plum curculio; [11]) was 0%. The “Percent Kill” value (Plum curculio; residual 7-day, PC, 1250 PPM) was 0%, the mortality at 39 ppm (Mexican bean beetle; read-out: Percent Kill, systemic, BB, 39 PPM) was 100% and the mortality at 156 ppm (Mexican bean beetle; read-out: Percent Kill, systemic, BB, 156 PPM) was 100%. The mortality at 156 ppm (Pea aphid [10]; read-out: Percent Kill, residual 7-day, PA, 156 PPM) was 0%, the mortality at 625 ppm (Pea aphid [10]; read-out: Percent Kill, residual 7-day, PA, 625 PPM) was 10% and the mortality at 1250 ppm (Pea aphid [10]; read-out: Percent Kill, residual 7-day, PA, 1250 PPM) was 100%.
